We go through 2 compounds from patent US11540987B2, “Composition with stabilized taste and odor (II)” (SYMRISE AG, priority 2015, dated 2023).

This experiment is described as follows: ABTS-assay, inhibition of radical formation. The class given is biochemical. The note with it: for IC50: absorption at 734 nm, mean value from at least 2 independent tests. The protocol:
By means of the ABTS-assay the anti-oxidative capacity of 4-hydroxyacetophenone and alpha-tocopherol was compared. 2,2′-azino bis-(3-ethylbenzothiazoline 6-sulfonic acid) (ABTS) was transformed by potassium persulfate into the blue-green radical cation ABTS•^+. Through the addition of 4-hydroxyacetophenone and alpha-tocopherol the radical cations were reduced and discoloration was observed, which was determined photometrically by Absorption at 734 nm. The inhibition of the radical formation of the test substance is calculated by the following formula:
[formula] Wherein the abbreviations have the following meanings: • Atest substance: Absorption of the wells with test substance including 4-hydroxyacetophenone and alpha-tocopherol • Acontrol: Absorption of the wells without test substance
From the inhibition of the radical formation [%] in a series of dilutions of tested samples the IC50 was calculated. This is the concentration at which the radical formation is inhibited by 50%.

With `CC(=O)c1ccc(O)cc1` [4-hydroxyacetophenone], the “fold higher IC50 value than alpha-tocopherol” value was found to be 10 fold and the IC50 amounted to 262 µM. In addition, the “antioxidant activity compared with alpha-tocopherol” value (in words) was “much weaker antioxidant activity”.

As for `Cc1c(C)c2c(c(C)c1O)CC[C@@](C)(CCC[C@H](C)CCC[C@H](C)CCCC(C)C)O2` [alpha-tocopherol, reference compound], the midpoint of inhibition, the IC50, lay at 26.8 µM.

By IC50 is commonly meant the concentration that inhibits the measured activity by half. A high value points to lower potency.
